In patent publication US20220054465A1, “(PYRIDIN-2-YL)AMINE DERIVATIVES AS TGF-BETA R1 (ALK5) INHIBITORS FOR THE TREATMENT OF CANCER” (Nexys Therapeutics, Inc., priority 2018, published 2022):

system: HEK-Blue TGFβ cell; experiment: HEK-Blue TGFβ cellular reporter gene assay (SEAP readout); type: cell-based; settings: HEK-Blue TGFβ cells stimulated with TGF-β, 22-23 h incubation, SEAP read at 630 nm
Method: HEK-Blue TGFβ Cellular Reporter Gene Assay:
HEK-Blue TGFβ cell was purchased from Invivogen. Cell suspension of 2.5×10^5 cells/ml was prepared using Test Medium (DMEM containing 0.5% v/v heat-inactivated FBS). TGF-β working solution (6 ng/ml) was obtained through diluting TGF-β stock solution (10 μg/ml) by Test Medium before use. Eight different concentrations of all compounds were obtained by 3× gradient dilution method using TGF-β working solution. Add 100 μl of Test Medium (Vehicle) or test article or TGF-β working solution per well of a flat-bottom 96-well plate. Add 100 μl of HEK-Blue TGF-β cell suspension per well. Incubate the plate at 37° C. in a CO2 incubator for 22-23 h. Add 150 μl of resuspended QUANTI-Blue per well of a new flat-bottom 96-well plate. Add 30 μl of induced HEK-Blue TGF-β cells supernatant. Avoid pipetting at the bottom of wells. Incubate the plate at 37° C. incubator for 30-40 min. Determine secreted embryonic alkaline phosphatase (SEAP) levels using a spectrophotometer at 630 nm.
The inhibition was calculated using the equation: […]

SMILES | IC50 [nM]
Cc1cc(Oc2ccnc(Nc3ccc(CCC(=O)O)cc3)c2)c(-c2ccccn2)nc1C [Example 2] | 230
Cc1cc(Oc2ccnc(Nc3cncc(CCC(=O)O)c3)c2)c(-c2ccccn2)nc1C [Example 3] | > 10000
Cc1cc(Oc2ccnc(Nc3ccc(F)c(CCC(=O)O)c3)c2)c(-c2ccccn2)nc1C [Example 4] | 200
Cc1cc(Oc2ccnc(Nc3ccc(Cl)c(CCC(=O)O)c3)c2)c(-c2ccccn2)nc1C [Example 5] | 150
Cc1cc(Oc2ccnc(Nc3cc(CCC(=O)O)ccc3F)c2)c(-c2ccccn2)nc1C [Example 6] | 160
Cc1cc(Oc2ccnc(Nc3cccc(CCC(=O)O)n3)c2)c(-c2ccccn2)nc1C [Example 7] | 170
Cc1cc(Oc2ccnc(Nc3cc(CCC(=O)O)ccn3)c2)c(-c2ccccn2)nc1C [Example 8] | 590
Cc1cc(Oc2ccnc(Nc3ccnc(CCC(=O)O)c3)c2)c(-c2ccccn2)nc1C [Example 9] | > 10000
Cc1cc(Oc2ccnc(Nc3cccc(CCC(=O)O)c3F)c2)c(-c2ccccn2)nc1C [Example 10] | 220
Cc1cc(Oc2ccnc(Nc3cccc(-c4nnn[nH]4)c3)c2)c(-c2ccccn2)nc1C [Example 13] | 1080
Cc1cc(Oc2ccnc(Nc3ccc(-c4nnn[nH]4)cc3)c2)c(-c2ccccn2)nc1C [Example 14] | > 10000
Cc1cc(Oc2ccnc(Nc3ccc(Cc4nnn[nH]4)cc3)c2)c(-c2ccccn2)nc1C [Example 15] | 1840
Cc1cc(Oc2ccnc(Nc3cccc(C(C)(C)c4nnn[nH]4)c3)c2)c(-c2ccccn2)nc1C [Example 18] | 180
Cc1cc(Oc2ccnc(Nc3cc(CCc4nnn[nH]4)ccc3F)c2)c(-c2ccccn2)nc1C [Example 19] | 160
Cc1cc(Oc2ccnc(Nc3ccc(Cl)c(CCc4nnn[nH]4)c3)c2)c(-c2ccccn2)nc1C [Example 20] | 120
Cc1cc(Oc2ccnc(Nc3ccc(F)c(CCc4nnn[nH]4)c3)c2)c(-c2ccccn2)nc1C [Example 21] | 160
Cc1cc(Oc2ccnc(Nc3ccc(C(F)(F)F)c(CCc4nn[nH]n4)c3)c2)c(-c2ccccn2)nc1C [Example 22] | 230
Cc1cc(Oc2ccnc(Nc3cncc(CCc4nnn[nH]4)c3)c2)c(-c2ccccn2)nc1C [Example 23] | > 10000
Cc1cc(Oc2ccnc(Nc3cc(CCc4nnn[nH]4)ccn3)c2)c(-c2ccccn2)nc1C [Example 24] | 4530
Cc1cc(Oc2ccnc(Nc3cccc(CCc4nnn[nH]4)c3F)c2)c(-c2ccccn2)nc1C [Example 25] | 640
Cc1cc(Oc2ccnc(Nc3cccc(CCc4nnn[nH]4)n3)c2)c(-c2ccccn2)nc1C [Example 26] | 350
Cc1cc(Oc2ccnc(Nc3cccc(CCc4nnn[nH]4)c3C)c2)c(-c2ccccn2)nc1C [Example 27] | 250
Cc1ccc(Nc2cc(Oc3cc(C)c(C)nc3-c3ccccn3)ccn2)cc1CCc1nnn[nH]1 [Example 28] | 50
Cc1cc(CCc2nnn[nH]2)cc(Nc2cc(Oc3cc(C)c(C)nc3-c3ccccn3)ccn2)c1 [Example 29] | 38
Cc1ccc(CCc2nnn[nH]2)cc1Nc1cc(Oc2cc(C)c(C)nc2-c2ccccn2)ccn1 [Example 30] | 110
Cc1cc(Oc2ccnc(Nc3cnn(CCc4nn[nH]n4)c3)c2)c(-c2ccccn2)nc1C [Example 31] | > 10000
Cc1cc(Oc2ccnc(Nc3ccn(CCc4nn[nH]n4)n3)c2)c(-c2ccccn2)nc1C [Example 32] | 3710
Cc1cc(Oc2ccnc(Nc3cccc(OCc4nnn[nH]4)c3)c2)c(-c2ccccn2)nc1C [Example 33] | 7310

SMILES | IC50 [nM]
Cc1cc(Oc2ccnc(Nc3cccc(Cc4nnn(CC(=O)O)n4)c3)c2)c(-c2ccccn2)nc1C [Example 34A, 2-(5-(3-((4-((5,6-dimethyl-[2,2′-bipyridin]-3-yl)oxy)pyridin-2-yl)amino)benzyl)-2H-tetrazol-2-yl)acetic acid] | 12700
Cc1cc(Oc2ccnc(Nc3cccc(Cc4nnnn4CC(=O)O)c3)c2)c(-c2ccccn2)nc1C [Example 34B, 2-(5-(3-((4-((5,6-dimethyl-[2,2′-bipyridin]-3-yl)oxy)pyridin-2-yl)amino)benzyl)-1H-tetrazol-1-yl)acetic acid] | > 10000
Cc1cc(Oc2ccnc(Nc3ccc(Cc4nnn(CC(=O)O)n4)cc3)c2)c(-c2ccccn2)nc1C [Example 35A] | > 10000
Cc1cc(Oc2ccnc(Nc3ccc(Cc4nnnn4CC(=O)O)cc3)c2)c(-c2ccccn2)nc1C [Example 35B] | > 10000
Cc1ccc(Oc2ccnc(Nc3ccc(F)c(CCC(=O)O)c3)c2)c(C)n1 [Example 36, 3-(5-((4-((2,6-dimethylpyridin-3-yl)oxy)pyridin-2-yl)amino)-2-fluorophenyl)propanoic acid] | 180
Cc1ccc(Oc2ccnc(Nc3cccc(CCC(=O)O)n3)c2)c(C)n1 [Example 37] | 200
Cc1ccc(Oc2ccnc(Nc3cncc(CCC(=O)O)c3)c2)c(C)n1 [Example 38] | > 10000
Cc1ccc(Oc2ccnc(Nc3cc(CCC(=O)O)ccc3F)c2)c(C)n1 [Example 39] | 260
Cc1ccc(Oc2ccnc(Nc3cccc(CCC(=O)O)c3F)c2)c(C)n1 [Example 40] | 220
Cc1ccc(Oc2ccnc(Nc3ccc(Cl)c(CCC(=O)O)c3)c2)c(C)n1 [Example 41] | 100
Cc1ccc(Oc2ccnc(Nc3cc(CCC(=O)O)ccn3)c2)c(C)n1 [Example 42] | 140
Cc1ccc(Oc2ccnc(Nc3cccc(CCC(=O)O)c3)c2)c(C#N)n1 [Example 43] | 3810
Cc1ccc(Oc2ccnc(Nc3cc(CCc4nn[nH]n4)ccc3F)c2)c(C)n1 [Example 45] | 420
Cc1ccc(Oc2ccnc(Nc3cccc(CCc4nn[nH]n4)c3F)c2)c(C)n1 [Example 46] | 520
Cc1ccc(Oc2ccnc(Nc3cccc(CCc4nn[nH]n4)n3)c2)c(C)n1 [Example 47] | 310
Cc1ccc(Oc2ccnc(Nc3cc(CCc4nn[nH]n4)ccn3)c2)c(C)n1 [Example 48] | 3030
Cc1ccc(Oc2ccnc(Nc3cncc(CCc4nn[nH]n4)c3)c2)c(C)n1 [Example 49] | > 10000
Cc1ccc(Oc2ccnc(Nc3ccc(Cl)c(CCc4nn[nH]n4)c3)c2)c(C)n1 [Example 50] | 630
Cc1ccc(Oc2ccnc(Nc3ccc(F)c(CCc4nn[nH]n4)c3)c2)c(C)n1 [Example 51] | 270
Cc1ccc(Oc2ccnc(Nc3cccc(CCc4nn[nH]n4)c3)c2)c(-c2cccnc2)n1 [Example 53] | 2950
Cc1ccc(Oc2ccnc(Nc3cccc(CCc4nn[nH]n4)c3)c2)c(-c2ccncc2)n1 [Example 54] | 6390
Cc1ccc(Oc2ccnc(Nc3cccc(CCc4nn[nH]n4)c3)c2)c(-c2ccccn2)n1 [Example 55] | 200
CCc1nc(C)ccc1Oc1ccnc(Nc2cccc(CCc3nn[nH]n3)c2)c1 [Example 56] | 160
CCc1ccc(Oc2ccnc(Nc3cccc(CCc4nn[nH]n4)c3)c2)c(C)n1 [Example 57] | 130
Cc1ccc(Oc2ccnc(Nc3cccc(CCc4nn[nH]n4)c3)c2)c(C(F)(F)F)n1 [Example 58] | 150
Cc1nc2ccccc2cc1Oc1ccnc(Nc2cccc(CCc3nn[nH]n3)c2)c1 [Example 59] | 450
Cc1ccc(Oc2ccnc(Nc3cccc(C(C)(C)c4nnn[nH]4)c3)c2)c(-c2ccccc2)n1 [Example 60] | 79
